Assay results published in patent publication US20120301895A1, “METHODS OF MODULATING BINDING OF SON OF SEVENLESS TO PHOSPHATIDIC ACID AND IDENTIFYING COMPOUNDS THAT MODULATE SUCH BINDING” (THE RESEARCH FOUNDATION OF STATE UNIVERSITY OF NEW YORK, priority 2007, published 2012).

Key:
[1] = test system: PLD activity in Calu-1 cells; test: In vivo PLD activity in Calu-1 lung cancer cells; type: cell-based, human; settings: honokiol 20 μM, 4 hr
Procedure: In FIG. 17A, T24 and Calu1 cells (obtained from the American Type Culture Collection) were plated in DMEM containing 10% serum for 48 hr and then shifted to either 10% serum or 0.5% serum overnight as indicated. Honokiol (20 μM) or control ethanol was then added for 4 hr as indicated. [^3H]-Myristate was added with the honokiol. After 4 hr, BtOH (0.7%) was added for 20 min, at which time the cells were harvested and the level of phosphatidyl-BtOH (P-Bt) was determined as in FIGS. 12A-C. The experiments shown are representative of at least two independent experiments. In FIG. 17B, T24 and Calu-1 cells were plated in DMEM with 10% serum for 48 hr then changed to DMEM containing either 10% or 0.5% serum overnight as indicated. […]
For in vivo PLD activity, cells were plated in 60 mm culture dishes in DMEM with 10% serum at a density that would allow them to grow to about 80% confluence after 2 days, then cells were shifted to DMEM containing 0.5% or 10% serum as indicated in the figure legends overnight. […] Briefly, PLD activity was measured by the release of [methyl-^3H] choline from [choline-methyl-^3H]dipalmitoyl-phosphatidylcholine. […] Free [methyl-^3H] choline was separated from precipitated lipids and proteins by centrifugation and was analyzed by liquid scintillation counting. […]

[2] = test system: PLD activity in 786-O cells; test: PLD activity in 786-O cells; type: cell-based, human; settings: no activated Ras
From the text: The PLD activity elevated in response to stress in the MDA-MB-231 cells was dependent on Ras in the MDA-MB-231, and also in the Calu1, and T24 cancer cells (Shi et al., “Elevated Phospholipase D Activity in Human Cancer Cells with Activating Ras Mutations Provides Survival Signal,” Cancer Lett. 258:268-75 (2007), which is hereby incorporated by reference in its entirety). […] This is interesting in that there is an activated K-Ras gene in the MDA-MB-231 cells. Similarly, there are activating mutations to Ras genes in both the Calu1 and T24 cells. It was recently reported that the PLD activity in the T24 cells, where H-Ras is activated, is dependent on the expression of H-Ras; and the PLD activity in the Calu-1 cells, where K-Ras is activated, is dependent on the expression of K-Ras (Shi et al., “Elevated Phospholipase D Activity in Human Cancer Cells with Activating Ras Mutations Provides Survival Signal,” Cancer Lett. 258:268-75 (2007), which is hereby incorporated by reference in its entirety). […] However, it is also possible that the increased GTP bound Ras represents activation of the non-mutated Ras—either the Ras protein encoded by the non-mutated wild type allele or other Ras isoforms. In the case of the MDA-MD-231 that would mean that H-Ras was being activated or the wild type K-Ras encoded by the non-mutant allele. […]

[3] = test system: B-cell chronic lymphocytic leukemia cells; settings: Battle et al. 2005; cited from earlier work

C=CCc1ccc(O)c(-c2ccc(O)c(CC=C)c2)c1 [honokiol, Honokiol]
stress-induced PLD activity ([1]; 0.5% serum): suppressed
PLD activity observed in the presence of serum ([1]; 10% serum): little effect
PLD activity [2]: blocks
apoptosis in B-CLL cells [3]: induce caspase-dependent apoptosis
